Reference: the NIST ThermoML archive (doi:10.1016/j.jct.2008.04.002)
± gives the expanded uncertainty stated by the source.

Assay: activity coefficient (dimensionless); of the first substance listed, at infinite dilution; xn = mol fraction of the nth substance listed
Details: 303.15 K; Liquid; Chromatography; x1 = 0
`C#CCCCCC` [1-heptyne] + CC(CC(C)(C)C)CP(=O)([O-])CC(C)CC(C)(C)C.CCCCCCCCCCCCCC[P+](CCCCCC)(CCCCCC)CCCCCC gave an activity coefficient of 0.33 ± 0.04.
`C#CCCCC` [1-hexyne] + CC(CC(C)(C)C)CP(=O)([O-])CC(C)CC(C)(C)C.CCCCCCCCCCCCCC[P+](CCCCCC)(CCCCCC)CCCCCC showed an activity coefficient of 0.38 ± 0.04.
Work on `C#CCCCCCC` [1-octyne] + CC(CC(C)(C)C)CP(=O)([O-])CC(C)CC(C)(C)C.CCCCCCCCCCCCCC[P+](CCCCCC)(CCCCCC)CCCCCC yielded an activity coefficient of 0.28 ± 0.03.
With `C=CCCC` [1-pentene] + CC(CC(C)(C)C)CP(=O)([O-])CC(C)CC(C)(C)C.CCCCCCCCCCCCCC[P+](CCCCCC)(CCCCCC)CCCCCC the activity coefficient was 0.59 ± 0.05.
In the case of `c1ccccc1` [benzene] + CC(CC(C)(C)C)CP(=O)([O-])CC(C)CC(C)(C)C.CCCCCCCCCCCCCC[P+](CCCCCC)(CCCCCC)CCCCCC, the activity coefficient is reported as 0.44 ± 0.04.
`C1CCCCCC1` [cycloheptane] + CC(CC(C)(C)C)CP(=O)([O-])CC(C)CC(C)(C)C.CCCCCCCCCCCCCC[P+](CCCCCC)(CCCCCC)CCCCCC gave an activity coefficient of 0.56 ± 0.05.
With `C1CCCCC1` [cyclohexane] + CC(CC(C)(C)C)CP(=O)([O-])CC(C)CC(C)(C)C.CCCCCCCCCCCCCC[P+](CCCCCC)(CCCCCC)CCCCCC the activity coefficient was 0.51 ± 0.05.
Work on `C1CCCC1` [cyclopentane] + CC(CC(C)(C)C)CP(=O)([O-])CC(C)CC(C)(C)C.CCCCCCCCCCCCCC[P+](CCCCCC)(CCCCCC)CCCCCC yielded an activity coefficient of 0.45 ± 0.04.
`CCCCCCC` [heptane] + CC(CC(C)(C)C)CP(=O)([O-])CC(C)CC(C)(C)C.CCCCCCCCCCCCCC[P+](CCCCCC)(CCCCCC)CCCCCC showed an activity coefficient of 0.77 ± 0.07.
`C=CCCCC` [hex-1-ene] + CC(CC(C)(C)C)CP(=O)([O-])CC(C)CC(C)(C)C.CCCCCCCCCCCCCC[P+](CCCCCC)(CCCCCC)CCCCCC gave an activity coefficient of 0.63 ± 0.06.
Work on `CCCCCC` [hexane] + CC(CC(C)(C)C)CP(=O)([O-])CC(C)CC(C)(C)C.CCCCCCCCCCCCCC[P+](CCCCCC)(CCCCCC)CCCCCC yielded an activity coefficient of 0.71 ± 0.06.
Compound `C=CCCCCCC` [oct-1-ene] + CC(CC(C)(C)C)CP(=O)([O-])CC(C)CC(C)(C)C.CCCCCCCCCCCCCC[P+](CCCCCC)(CCCCCC)CCCCCC has an activity coefficient of 0.75 ± 0.06.
In the case of `CCCCCCCC` [octane] + CC(CC(C)(C)C)CP(=O)([O-])CC(C)CC(C)(C)C.CCCCCCCCCCCCCC[P+](CCCCCC)(CCCCCC)CCCCCC, the activity coefficient is reported as 0.79 ± 0.07.
Compound `CCCCC` [pentane] + CC(CC(C)(C)C)CP(=O)([O-])CC(C)CC(C)(C)C.CCCCCCCCCCCCCC[P+](CCCCCC)(CCCCCC)CCCCCC has an activity coefficient of 0.66 ± 0.06.

Same assay, conditions: 308.15 K; Liquid; Chromatography; x1 = 0
Work on `C#CCCCCC` [1-heptyne] + CC(CC(C)(C)C)CP(=O)([O-])CC(C)CC(C)(C)C.CCCCCCCCCCCCCC[P+](CCCCCC)(CCCCCC)CCCCCC yielded an activity coefficient of 0.35 ± 0.04.
For `C#CCCCC` [1-hexyne] + CC(CC(C)(C)C)CP(=O)([O-])CC(C)CC(C)(C)C.CCCCCCCCCCCCCC[P+](CCCCCC)(CCCCCC)CCCCCC, the activity coefficient was 0.4 ± 0.04.
For `C#CCCCCCC` [1-octyne] + CC(CC(C)(C)C)CP(=O)([O-])CC(C)CC(C)(C)C.CCCCCCCCCCCCCC[P+](CCCCCC)(CCCCCC)CCCCCC, the activity coefficient was 0.33 ± 0.04.
Work on `C=CCCC` [1-pentene] + CC(CC(C)(C)C)CP(=O)([O-])CC(C)CC(C)(C)C.CCCCCCCCCCCCCC[P+](CCCCCC)(CCCCCC)CCCCCC yielded an activity coefficient of 0.61 ± 0.05.
Compound `c1ccccc1` [benzene] + CC(CC(C)(C)C)CP(=O)([O-])CC(C)CC(C)(C)C.CCCCCCCCCCCCCC[P+](CCCCCC)(CCCCCC)CCCCCC has an activity coefficient of 0.47 ± 0.04.
`C1CCCCCC1` [cycloheptane] + CC(CC(C)(C)C)CP(=O)([O-])CC(C)CC(C)(C)C.CCCCCCCCCCCCCC[P+](CCCCCC)(CCCCCC)CCCCCC showed an activity coefficient of 0.56 ± 0.05.
Compound `C1CCCCC1` [cyclohexane] + CC(CC(C)(C)C)CP(=O)([O-])CC(C)CC(C)(C)C.CCCCCCCCCCCCCC[P+](CCCCCC)(CCCCCC)CCCCCC has an activity coefficient of 0.52 ± 0.05.
For `C1CCCC1` [cyclopentane] + CC(CC(C)(C)C)CP(=O)([O-])CC(C)CC(C)(C)C.CCCCCCCCCCCCCC[P+](CCCCCC)(CCCCCC)CCCCCC, the activity coefficient was 0.46 ± 0.04.
`CCCCCCC` [heptane] + CC(CC(C)(C)C)CP(=O)([O-])CC(C)CC(C)(C)C.CCCCCCCCCCCCCC[P+](CCCCCC)(CCCCCC)CCCCCC gave an activity coefficient of 0.79 ± 0.07.
Work on `C=CCCCC` [hex-1-ene] + CC(CC(C)(C)C)CP(=O)([O-])CC(C)CC(C)(C)C.CCCCCCCCCCCCCC[P+](CCCCCC)(CCCCCC)CCCCCC yielded an activity coefficient of 0.65 ± 0.06.
`CCCCCC` [hexane] + CC(CC(C)(C)C)CP(=O)([O-])CC(C)CC(C)(C)C.CCCCCCCCCCCCCC[P+](CCCCCC)(CCCCCC)CCCCCC showed an activity coefficient of 0.73 ± 0.06.
`C=CCCCCCC` [oct-1-ene] + CC(CC(C)(C)C)CP(=O)([O-])CC(C)CC(C)(C)C.CCCCCCCCCCCCCC[P+](CCCCCC)(CCCCCC)CCCCCC gave an activity coefficient of 0.76 ± 0.06.
In the case of `CCCCCCCC` [octane] + CC(CC(C)(C)C)CP(=O)([O-])CC(C)CC(C)(C)C.CCCCCCCCCCCCCC[P+](CCCCCC)(CCCCCC)CCCCCC, the activity coefficient is reported as 0.82 ± 0.07.
Compound `CCCCC` [pentane] + CC(CC(C)(C)C)CP(=O)([O-])CC(C)CC(C)(C)C.CCCCCCCCCCCCCC[P+](CCCCCC)(CCCCCC)CCCCCC has an activity coefficient of 0.69 ± 0.06.
